The values below come from patent US11667649B2, “Heteroaromatic macrocyclic ether chemotherapeutic agents” (Nuvalent, Inc., priority 2020, dated 2023).

The subject of the experiment is TPM3-NTRK1-wt IC50 / primary target (e.g. CD74-ROS1-wt) IC50, Ba/F3 cells. Description: Cell assay TRKA selectivity (TRKA potency divided by primary target potency). Type of experiment: cell-based. The note with it: for TPM3-NTRK1-wt/CD74-ROS1-G2032R: TRKA selectivity ratio: TPM3-NTRK1-wt IC50 / CD74-ROS1-G2032R IC50, Ba/F3 cells; for TPM3-NTRK1-wt/CD74-ROS1-wt: TRKA selectivity ratio: TPM3-NTRK1-wt IC50 / CD74-ROS1-wt IC50, Ba/F3 cells; for TPM3-NTRK1-wt/EML4-ALK-L1196M-G1202R: TRKA selectivity ratio: TPM3-NTRK1-wt IC50 / EML4-ALK-L1196M-G1202R IC50, Ba/F3 cells; for TPM3-NTRK1-wt/EML4-ALK-wt: TRKA selectivity ratio: TPM3-NTRK1-wt IC50 / EML4-ALK-wt IC50, Ba/F3 cells. The procedure, abridged:
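IL-3-independent Ba/F3 lines stably expressing TPM3-TRKA or the primary fusion (e.g. CD74-ROS1 wt) were exposed to 3-fold compound dilutions for 72 h. Viability was read by CellTiter-Glo luminescence, with IC50 from four-parameter logistic fit. Selectivity is TPM3-NTRK1 IC50 divided by primary-target IC50, binned A (>30-fold) to D (<1).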

Turning to `CCc1nn(C)c2c1-c1cnc(N)c(c1)O[C@H](C)c1cc(F)ccc1-c1nn(C)cc1C2` [Example 171, (19R)-3-ethyl-16-fluoro-5,10,19-trimethyl-20-oxa-4,5,10,11,23-pentaazapentacyclo[19.3.1.0^2,^6.0^8,^12.0^13,^18]pentacosa-1(24),2(6),3,8,11,13,15,17,21(25),22-decaen-22-amine], the TPM3-NTRK1-wt/CD74-ROS1-G2032R result is recorded as “A (bin A for very high selectivity, ratio>30-fold)”; the TPM3-NTRK1-wt/CD74-ROS1-wt result was “A (bin A for very high selectivity, ratio>30-fold)”; the TPM3-NTRK1-wt/EML4-ALK-L1196M-G1202R result is given as “B (bin B for high selectivity, ratio>10-fold)”; the TPM3-NTRK1-wt/EML4-ALK-wt entry was “A (bin A for very high selectivity, ratio>30-fold)”.

With `C[C@H]1Oc2cc(cnc2N)-c2c(CC(F)F)nn(C)c2Cc2cn(C)nc2-c2ccc(F)cc21` [Example 172, (19R)-3-(2,2-difluoroethyl)-16-fluoro-5,10,19-trimethyl-20-oxa-4,5,10,11,23-pentaazapentacyclo[19.3.1.0^2,^6.0^8,^12.0^13,^18]pentacosa-1(24),2(6),3,8,11,13,15,17,21(25),22-decaen-22-amine], the TPM3-NTRK1-wt/CD74-ROS1-G2032R entry was “A (bin A for very high selectivity, ratio>30-fold)”; the TPM3-NTRK1-wt/CD74-ROS1-wt result is “A (bin A for very high selectivity, ratio>30-fold)”; the TPM3-NTRK1-wt/EML4-ALK-L1196M-G1202R result is “A (bin A for very high selectivity, ratio>30-fold)”; the TPM3-NTRK1-wt/EML4-ALK-wt result is recorded as “A (bin A for very high selectivity, ratio>30-fold)”.

On to `CCc1nn(C)c2c1-c1cnc(N)c(c1)O[C@H](C)c1cc(F)ccc1-c1nc(C)sc1C2` [Example 173, (19R)-3-ethyl-16-fluoro-5,10,19-trimethyl-20-oxa-9-thia-4,5,11,23-tetraazapentacyclo[19.3.1.0^2,^6.0^8,^12.0^13,^18]pentacosa-1(24),2(6),3,8(12),10,13,15,17,21(25),22-decaen-22-amine], for which the TPM3-NTRK1-wt/CD74-ROS1-G2032R result was “A (bin A for very high selectivity, ratio>30-fold)”; the TPM3-NTRK1-wt/CD74-ROS1-wt result is “A (bin A for very high selectivity, ratio>30-fold)”; the TPM3-NTRK1-wt/EML4-ALK-L1196M-G1202R result was “B (bin B for high selectivity, ratio>10-fold)”; the TPM3-NTRK1-wt/EML4-ALK-wt entry is given as “A (bin A for very high selectivity, ratio>30-fold)”.

As to `C[C@H]1Oc2cc(cnc2N)-c2c(nn(C)c2C2CCC2)Cc2ccnn2-c2ccc(F)cc21` [Example 174, (19R)-3-cyclobutyl-16-fluoro-4,19-dimethyl-20-oxa-4,5,11,12,23-pentaazapentacyclo[19.3.1.0^2,^6.0^8,^12.0^13,^18]pentacosa-1(24),2,5,8,10,13,15,17,21(25),22-decaen-22-amine], the TPM3-NTRK1-wt/CD74-ROS1-G2032R entry is recorded as “B (bin B for high selectivity, ratio>10-fold)”; the TPM3-NTRK1-wt/CD74-ROS1-wt entry is recorded as “A (bin A for very high selectivity, ratio>30-fold)”; the TPM3-NTRK1-wt/EML4-ALK-L1196M-G1202R entry was “C (bin C for moderate selectivity, ratio≥1)”; the TPM3-NTRK1-wt/EML4-ALK-wt entry is on record as “A (bin A for very high selectivity, ratio>30-fold)”.

With `CCc1nn(C)c2c1-c1cnc(N)c(c1)OCc1cc(F)ccc1-c1nc(C)sc1C2` [Example 175, 3-ethyl-16-fluoro-5,10-dimethyl-20-oxa-9-thia-4,5,11,23-tetraazapentacyclo[19.3.1.0^2,^6.0^8,^12.0^13,^18]pentacosa-1(24),2(6),3,8(12),10,13,15,17,21(25),22-decaen-22-amine], the TPM3-NTRK1-wt/CD74-ROS1-G2032R entry is listed as “A (bin A for very high selectivity, ratio>30-fold)”; the TPM3-NTRK1-wt/CD74-ROS1-wt result was “A (bin A for very high selectivity, ratio>30-fold)”; the TPM3-NTRK1-wt/EML4-ALK-L1196M-G1202R entry is “B (bin B for high selectivity, ratio>10-fold)”; the TPM3-NTRK1-wt/EML4-ALK-wt result is given as “A (bin A for very high selectivity, ratio>30-fold)”.

As to `CCc1nn(C)c2c1-c1cnc(N)c(c1)OCc1cc(F)ccc1-c1nn(C)cc1C2` [Example 176, 3-ethyl-16-fluoro-5,10-dimethyl-20-oxa-4,5,10,11,23-pentaazapentacyclo[19.3.1.0^2,^6.0^8,^12.0^13,^18]pentacosa-1(24),2(6),3,8,11,13,15,17,21(25),22-decaen-22-amine], the TPM3-NTRK1-wt/CD74-ROS1-G2032R result was “A (bin A for very high selectivity, ratio>30-fold)”; the TPM3-NTRK1-wt/CD74-ROS1-wt result is “A (bin A for very high selectivity, ratio>30-fold)”; the TPM3-NTRK1-wt/EML4-ALK-L1196M-G1202R entry is listed as “B (bin B for high selectivity, ratio>10-fold)”; the TPM3-NTRK1-wt/EML4-ALK-wt entry is “A (bin A for very high selectivity, ratio>30-fold)”.

`C[C@H]1Oc2cc(cnc2N)-c2c(nn(C)c2CC2CC2)Cc2ccnn2-c2ccc(F)cc21` [Example 177, (19R)-3-(cyclopropylmethyl)-16-fluoro-4,19-dimethyl-20-oxa-4,5,11,12,23-pentaazapentacyclo[19.3.1.0^2,^6.0^8,^12.0^13,^18]pentacosa-1(24),2,5,8,10,13,15,17,21(25),22-decaen-22-amine]: the TPM3-NTRK1-wt/CD74-ROS1-G2032R entry is on record as “A (bin A for very high selectivity, ratio>30-fold)”; the TPM3-NTRK1-wt/CD74-ROS1-wt result is recorded as “A (bin A for very high selectivity, ratio>30-fold)”; the TPM3-NTRK1-wt/EML4-ALK-L1196M-G1202R entry is reported as “B (bin B for high selectivity, ratio>10-fold)”; the TPM3-NTRK1-wt/EML4-ALK-wt entry is given as “A (bin A for very high selectivity, ratio>30-fold)”.

Consider `C[C@H]1Oc2cc(cnc2N)-c2c(CC3CC3)nn(C)c2Cc2cn(C)nc2-c2ccc(F)cc21` [Example 178, (19R)-3-(cyclopropylmethyl)-16-fluoro-5,10,19-trimethyl-20-oxa-4,5,10,11,23-pentaazapentacyclo[19.3.1.0^2,^6.0^8,^12.0^13,^18]pentacosa-1(24),2(6),3,8,11,13,15,17,21(25),22-decaen-22-amine], for which the TPM3-NTRK1-wt/CD74-ROS1-G2032R entry is listed as “A (bin A for very high selectivity, ratio>30-fold)”; the TPM3-NTRK1-wt/CD74-ROS1-wt entry is given as “A (bin A for very high selectivity, ratio>30-fold)”; the TPM3-NTRK1-wt/EML4-ALK-L1196M-G1202R result is recorded as “A (bin A for very high selectivity, ratio>30-fold)”; the TPM3-NTRK1-wt/EML4-ALK-wt entry is “A (bin A for very high selectivity, ratio>30-fold)”.

As for `C[C@H]1Oc2cc(cnc2N)-c2c(nn(C)c2CC2CC2)Cc2cn(C)nc2-c2ccc(F)cc21` [Example 179, (19R)-3-(cyclopropylmethyl)-16-fluoro-4,10,19-trimethyl-20-oxa-4,5,10,11,23-pentaazapentacyclo[19.3.1.0^2,^6.0^8,^12.0^13,^18]pentacosa-1(24),2,5,8,11,13,15,17,21(25),22-decaen-22-amine], the TPM3-NTRK1-wt/CD74-ROS1-G2032R entry was “A (bin A for very high selectivity, ratio>30-fold)”; the TPM3-NTRK1-wt/CD74-ROS1-wt result is given as “A (bin A for very high selectivity, ratio>30-fold)”; the TPM3-NTRK1-wt/EML4-ALK-L1196M-G1202R entry is on record as “A (bin A for very high selectivity, ratio>30-fold)”; the TPM3-NTRK1-wt/EML4-ALK-wt result is recorded as “A (bin A for very high selectivity, ratio>30-fold)”.

As for `C[C@H]1Oc2cc(cnc2N)-c2c(CC(F)F)nn(C)c2Cc2cc(C(F)F)nn2-c2ccc(F)cc21` [Example 180, (19R)-3-(2,2-difluoroethyl)-10-(difluoromethyl)-16-fluoro-5,19-dimethyl-20-oxa-4,5,11,12,23-pentaazapentacyclo[19.3.1.0^2,^6.0^8,^12.0^13,^18]pentacosa-1(24),2(6),3,8,10,13,15,17,21(25),22-decaen-22-amine], the TPM3-NTRK1-wt/CD74-ROS1-G2032R entry was “A (bin A for very high selectivity, ratio>30-fold)”; the TPM3-NTRK1-wt/CD74-ROS1-wt result was “A (bin A for very high selectivity, ratio>30-fold)”; the TPM3-NTRK1-wt/EML4-ALK-L1196M-G1202R result is given as “C (bin C for moderate selectivity, ratio≥1)”; the TPM3-NTRK1-wt/EML4-ALK-wt result was “A (bin A for very high selectivity, ratio>30-fold)”.
